Results reported in US12501917B2, “Methods and compositions for treating intestinal disorder” (MARS, INCORPORATED, priority 2019, dated 2025).

Test system: canine fecal microbiome
Settings: dog, in vivo

## Cc1ncc([N+](=O)[O-])n1CCO [metronidazole]
  dysbiosis (community evenness, distance from healthy controls, potential pathogens): exacerbated dysbiosis
